{"source": "patent US20060258639A1", "about": "“Therapeutic combinations for the treatment or prevention of psychotic disorders” (Wyeth, priority 2005, published 2006)", "type_in_all_cases": "in vivo", "key": {"[1]": {"tested_on": "apomorphine-induced climbing", "assay": "apomorphine-induced climbing in mice, Compound 1 alone or with haloperidol (Experiment 1)", "conditions": "for ED50: Mus musculus, sc, apomorphine 1 mg/kg s.c., read-out: ED50 for apomorphine block", "experimental": "(§1) Using (7-(2,6-dichlorophenyl)-5-fluoro-2,3-dihydrobenzofuran-2-yl)methanamine (Compound 1) as an example, the present Example describes two experiments in which a compound of formula I, was administered in combination with either a typical (exemplified by haloperidol) or atypical (exemplified by clozapine). The combination reduced apomorphine-induced climbing without side effects.\n(§2) Mice were acclimated to the climbing cages for at least 1 hour and then dosed with either the vehicle or a dose of haloperidol or clozapine followed by a dose of either vehicle or a dose of Compound 1. Thirty minutes after dosing all mice received 1 mg/kg s.c. apomorphine and returned to the climbing cages. Five minutes after apomorphine the mice were observed and scored for climbing and stereotypy every 5 minutes for the 30 minute test session."}, "[2]": {"tested_on": "apomorphine-induced climbing", "assay": "apomorphine-induced climbing in mice, Compound 1 alone or with clozapine (Experiment 2)", "conditions": "for ED50: Mus musculus, sc, apomorphine 1 mg/kg s.c., read-out: ED50 for apomorphine block", "experimental": "as §1, §2"}, "[3]": {"tested_on": "catalepsy induced by haloperidol", "assay": "catalepsy (bar test), extra-pyramidal side effect liability, Compound 1 with haloperidol", "conditions": "Compound 1 3 mg/kg with haloperidol 0.1 & 0.17 mg/kg; 30, 60, 90 and 120 minutes after dosing; mice", "experimental": "Using (7-(2,6-dichlorophenyl)-5-fluoro-2,3-dihydrobenzofuran-2-yl)methanamine (Compound 1) as an example, the present Example describes an experiment in which a compound of formula I was administered in combination with haloperidol to assess extra-pyramidal side effect liability, as represented by cataleptic behavior. [table] Mice were dosed with either the vehicle or a dose of haloperidol followed by a dose of either vehicle or a dose of Compound 1. Thirty, 60, 90 and 120 minutes after dosing, the forelegs are draped over a thin horizontal rod 1.75″ high. The number of seconds up to 60 sec for which the mouse remains on the bar is recorded at each test point and presented as the percent of maximum possible response (60 sec)."}, "[4]": {"conditions": "Compound 1 0.3, 1 & 3 mg/kg co-administered with clozapine 3 & 5.4 mg/kg"}}}
{"smiles": "NCC1Cc2cc(F)cc(-c3c(Cl)cccc3Cl)c2O1", "note": "(centres unmarked) [Compound 1, (7-(2,6-dichlorophenyl)-5-fluoro-2,3-dihydrobenzofuran-2-yl)methanamine]", "values": [{"measurement": "block of apomorphine induced climbing versus either compound alone", "setting": "[1]; Compound 1 0.3, 1 & 3 mg/kg co-administered with haloperidol 0.17 mg/kg", "value": "greater block of apomorphine induced climbing"}, {"measurement": "effect on stereotypy", "setting": "[1]; Compound 1 0.3, 1 & 3 mg/kg co-administered with haloperidol 0.17 mg/kg, relative to haloperidol alone", "value": "no effect on stereotypy"}, {"measurement": "ED50", "setting": "[1]; Experiment 1, Compound 1 alone", "value": 1.81, "unit": "mg/kg"}, {"measurement": "ED50", "setting": "[1]; Experiment 1, co-administered with 0.1 mg/kg of haloperidol", "value": 1.49, "unit": "mg/kg"}, {"measurement": "ED50", "setting": "[1]; Experiment 1, co-administered with 0.17 mg/kg of haloperidol", "value": 0.534, "unit": "mg/kg"}, {"measurement": "block of apomorphine induced climbing versus either compound alone", "setting": "[2]; [4]", "value": "greater block of apomorphine induced climbing"}, {"measurement": "effect on stereotypy", "setting": "[2]; [4]", "value": "no effect on stereotypy"}, {"measurement": "ED50", "setting": "[2]; Experiment 2, Compound 1 alone", "value": 7.15, "unit": "mg/kg"}, {"measurement": "ED50", "setting": "[2]; Experiment 2, co-administered with 3 mg/kg of clozapine", "value": 2.48, "unit": "mg/kg"}, {"measurement": "ED50", "setting": "[2]; Experiment 2, co-administered with 5.4 mg/kg of clozapine", "value": 1.67, "unit": "mg/kg"}, {"measurement": "catalepsy, percent of maximum possible response (60 sec)", "setting": "[3]", "value": "up to 45 % of maximum catalepsy"}]}
